From patent US12371416B2, “Compounds for inhibition of fibroblast activation protein” (USTAV ORGANICKE CHEMIE A BIOCHEMIE AV CR, V. V. I., priority 2020, dated 2025)

Columns and labels:
CCRF-CEM = assay: Cytotoxicity (XTT) on CCRF-CEM cells; assay type: cell-based, human; conditions: 72 h
Procedure: (§1) The cytotoxicity of the substances was measured on four tumour cell lines: CCRF-CEM, HepG2, Hela, HL-60. All cell lines were purchased from ATCC (Manassas, VA, USA). Cells were cultured in RPMI-1640 or DMEM medium containing 10% (wt/wt) FBS and 1% (wt/wt) GlutaMax. Cells were distributed at 2,000-10,000 per well of a 384-well plate (Thermo Fisher Scientific, Waltham, USA) and incubated overnight. After 24 hours, test substance solutions (10 or 100 μmol·l^−1) were added to the wells and the cells were incubated with the test substances at 37° C. and 5% (vol./vol.) CO2 for another 72 h. XTT dye (XTT cell proliferation kit II, Roche Diagnostics GmbH, Mannheim, Germany) was added to the wells according to the manufacturer's protocol. After one hour of incubation with the dye, the absorbance at 495 nm was measured and the signal was compared with the control (100% viability=cells without test substance).

HL-60 = assay: Cytotoxicity (XTT) on HL-60 cells; assay type: cell-based, human; conditions: 72 h
Procedure: as §1

[1] = Stability in murine plasma; assay type: in vitro ADME; conditions: 37° C.; for Stability in murine plasma: up to 120 minutes
Procedure: (§2) An aliquot of plasma was extracted with 120 μl of methanol containing caffeine as an internal standard. The solution was vortexed (5 min) and centrifuged (20500 g; 10 min), the supernatant was transferred to a vial, and 1 μl of the mixture was used for LC-MS analysis. […] Results are presented as the percentage of test substance versus control (aliquot taken at time 0).

[2] = Stability in murine microsomes; assay type: in vitro ADME; conditions: for Stability in murine microsomes: murine microsomes 0.5 mg/ml, 5 μmol·l^−1 test substance, NADPH
Procedure: The incubation of 37.5 μl of the mixture was terminated by the addition of 150 μl of acetonitrile containing caffeine as an internal standard, cooled to 0° C. The mixture was vortexed (5 min) and centrifuged (20500 g; 10 min). The supernatant was transferred to a vial, and 1 μl of the mixture was used for LC-MS analysis. […] Results are presented as the percentage of test substance versus control (aliquot taken at time 0).

HepG2 = assay: Cytotoxicity (XTT) on HepG2 cells; assay type: cell-based, human; conditions: 72 h
Procedure: as §1

Hela = assay: Cytotoxicity (XTT) on Hela cells; assay type: cell-based, human; conditions: 72 h
Procedure: as §1

[3] = Stability in human plasma; assay type: in vitro ADME; conditions: 37° C.; for Stability in human plasma: up to 120 minutes
Procedure: as §2

DPPIV = target: T1, DPPIV (Homo sapiens, UniProt P27487); assay: Inhibitory activity against human recombinant DPPIV (IC50); assay type: biochemical; conditions: selected substances
T1 construct: purchased R&D Systems 9168-SE-010
Procedure: (§3) Data were analysed by nonlinear regression with GraphPrism (version 8.3.1). The measurement results are given as values of the mean inhibitory concentration IC50 and its linearized form via the negative decimal logarithm of pIC50.

PREP = target: T2, PREP (Homo sapiens, UniProt P48147); assay: Inhibitory activity against human recombinant PREP (IC50); assay type: biochemical; conditions: selected substances
T2 construct: purchased R&D Systems 4308-SE-010
T2 sequence (P48147 1-710): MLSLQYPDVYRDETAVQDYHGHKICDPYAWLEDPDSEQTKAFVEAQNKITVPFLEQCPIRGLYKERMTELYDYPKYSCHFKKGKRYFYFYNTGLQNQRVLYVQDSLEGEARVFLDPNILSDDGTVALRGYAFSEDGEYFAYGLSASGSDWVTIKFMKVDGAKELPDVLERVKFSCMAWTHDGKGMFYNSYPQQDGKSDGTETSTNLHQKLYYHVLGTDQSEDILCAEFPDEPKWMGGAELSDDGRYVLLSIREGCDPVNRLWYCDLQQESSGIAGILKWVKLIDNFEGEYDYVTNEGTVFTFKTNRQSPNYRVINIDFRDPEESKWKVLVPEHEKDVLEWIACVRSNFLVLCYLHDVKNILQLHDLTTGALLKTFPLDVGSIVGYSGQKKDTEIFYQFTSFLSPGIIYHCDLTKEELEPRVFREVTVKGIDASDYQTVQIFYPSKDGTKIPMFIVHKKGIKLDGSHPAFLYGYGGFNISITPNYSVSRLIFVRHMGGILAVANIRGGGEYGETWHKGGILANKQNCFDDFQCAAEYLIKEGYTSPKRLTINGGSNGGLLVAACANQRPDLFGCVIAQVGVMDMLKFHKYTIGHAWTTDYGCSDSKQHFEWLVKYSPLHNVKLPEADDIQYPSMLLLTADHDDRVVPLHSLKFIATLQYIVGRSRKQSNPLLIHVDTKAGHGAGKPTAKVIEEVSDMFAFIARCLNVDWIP
Procedure: as §3

T1 sequence (P27487 whole entry): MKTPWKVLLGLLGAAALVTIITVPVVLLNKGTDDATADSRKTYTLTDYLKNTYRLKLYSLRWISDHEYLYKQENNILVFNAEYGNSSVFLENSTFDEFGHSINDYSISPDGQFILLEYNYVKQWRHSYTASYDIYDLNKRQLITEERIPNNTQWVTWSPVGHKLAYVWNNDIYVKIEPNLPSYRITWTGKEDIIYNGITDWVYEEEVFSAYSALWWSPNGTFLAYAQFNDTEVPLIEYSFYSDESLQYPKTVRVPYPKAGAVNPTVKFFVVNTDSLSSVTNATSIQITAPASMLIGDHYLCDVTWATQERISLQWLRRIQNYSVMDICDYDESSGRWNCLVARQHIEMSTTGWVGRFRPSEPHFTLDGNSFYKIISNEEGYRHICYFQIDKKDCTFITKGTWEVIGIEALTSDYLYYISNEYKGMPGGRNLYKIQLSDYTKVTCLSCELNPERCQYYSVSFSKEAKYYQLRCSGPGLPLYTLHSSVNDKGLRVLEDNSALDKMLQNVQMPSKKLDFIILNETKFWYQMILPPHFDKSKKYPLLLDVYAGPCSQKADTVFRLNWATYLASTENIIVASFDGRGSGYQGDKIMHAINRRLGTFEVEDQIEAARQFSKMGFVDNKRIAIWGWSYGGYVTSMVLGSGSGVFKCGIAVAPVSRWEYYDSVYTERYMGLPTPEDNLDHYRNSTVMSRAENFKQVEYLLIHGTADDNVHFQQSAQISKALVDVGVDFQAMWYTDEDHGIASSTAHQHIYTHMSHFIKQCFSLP

Row | Stability in murine plasma [1] | Stability in murine microsomes [2] | Stability in human plasma [3] | IC50 (DPPIV) | IC50 (PREP) | substance degraded within 20 minutes [1] | substance degraded within 120 minutes ([3]; 120 minutes) | substance degraded within 20 minutes ([2]; murine microsomes, 20 minutes) | SMILES | Cell viability CEM 10 μM (CCRF-CEM) | Cell viability CEM 100 μM (CCRF-CEM) | Cell viability HL60 10 μM (HL-60) | Cell viability HL60 100 μM (HL-60) | Cell viability HepG2 10 μM (HepG2) | Cell viability HepG2 100 μM (HepG2) | Cell viability HeLa S3 10 μM (Hela) | Cell viability HeLa S3 100 μM (Hela)
1 | degrade immediately | partially stable | stable | – | 0.3 nM | 100% | 25% | – | COC(=O)[C@H](Cc1ccccc1)NC(=O)CNC(=O)C(=O)[C@@H]1CCCN1C(=O)CNC(=O)c1ccnc2ccccc12 [Compound 5f, Methyl (2-oxo-2-((S)-1-((quinoline-4-carbonyl)glycyl)pyrrolidin-2-yl)acetyl)glycyl-L-phenylalaninate] | 98 % vs. control | 72 % vs. control | 114 % vs. control | 98 % vs. control | 78 % vs. control | 121 % vs. control | 96 % vs. control | 100 % vs. control
2 | degrade immediately | unstable | stable | – | – | 100% | – | 100% | COC(=O)[C@H](CCC(=O)OCc1ccccc1)NC(=O)CNC(=O)C(=O)[C@@H]1CCCN1C(=O)CNC(=O)c1ccnc2ccccc12 [Compound 5h, 5-Benzyl 1-methyl (2-oxo-2-((S)-1-((quinoline-4-carbonyl)glycyl)pyrrolidin-2-yl)acetyl)glycyl-L-glutamate] | 114 % vs. control | 103 % vs. control | 109 % vs. control | 106 % vs. control | 112 % vs. control | 105 % vs. control | 116 % vs. control | 93 % vs. control
3 | – | – | – | – | 0.26 nM | – | – | – | COC(=O)[C@H](CCCCNC(=O)OCc1ccccc1)NC(=O)CNC(=O)C(=O)[C@@H]1CCCN1C(=O)CNC(=O)c1ccnc2ccccc12 [Compound 5i] | 107 % vs. control | 107 % vs. control | 104 % vs. control | 101 % vs. control | 89 % vs. control | 101 % vs. control | 94 % vs. control | 98 % vs. control

More lines, now with the values behind:

Row | SMILES | Stability in murine plasma [1] | Stability in murine microsomes [2] | Stability in human plasma [3] | IC50 (DPPIV) | IC50 (PREP) | substance degraded within 20 minutes [1] | substance degraded within 120 minutes ([3]; 120 minutes) | substance degraded within 20 minutes ([2]; murine microsomes, 20 minutes) | Cell viability CEM 10 μM (CCRF-CEM) | Cell viability CEM 100 μM (CCRF-CEM) | Cell viability HL60 10 μM (HL-60) | Cell viability HL60 100 μM (HL-60) | Cell viability HepG2 10 μM (HepG2) | Cell viability HepG2 100 μM (HepG2) | Cell viability HeLa S3 10 μM (Hela) | Cell viability HeLa S3 100 μM (Hela)
4 | O=C(NCc1ccccc1)C(=O)[C@@H]1CCCN1C(=O)CNC(=O)c1ccnc2ccccc12 [Compound 3a, (S)—N-(2-(2-(2-(Benzylamino)-2-oxoacetyl)pyrrolidin-1-yl)-2-oxoethyl)quinoline-4-carboxamide] | stable | stable | stable | – | – | – | – | – | 105 % vs. control | 94 % vs. control | 94 % vs. control | 106 % vs. control | 103 % vs. control | 107 % vs. control | 119 % vs. control | 96 % vs. control
5 | COc1ccc(CCNC(=O)C(=O)[C@@H]2CCCN2C(=O)CNC(=O)c2ccnc3ccccc23)cc1OC [Compound 3e, (S)—N-(2-(2-(2-((3,4-Dimethoxyphenethyl)amino)-2-oxoacetyl)pyrrolidin-1-yl)-2-oxoethyl)quinoline-4-carboxamide] | stable | partially stable | stable | > 4000 nM | 0.5 nM | – | – | – | 108 % vs. control | 85 % vs. control | 101 % vs. control | 106 % vs. control | 92 % vs. control | 90 % vs. control | 104 % vs. control | 86 % vs. control
6 | CCCCCNC(=O)C(=O)[C@@H]1CCCN1C(=O)CNC(=O)c1ccnc2ccccc12 [Compound 3j, (S)—N-(2-Oxo-2-(2-(2-oxo-2-(pentylamino)acetyl)pyrrolidin-1-yl)ethyl)quinoline-4-carboxamide] | – | – | – | > 4000 nM | 0.4 nM | – | – | – | 94 % vs. control | 119 % vs. control | 109 % vs. control | 123 % vs. control | 76 % vs. control | 124 % vs. control | 93 % vs. control | 109 % vs. control
7 | CC(C)(C)OC(=O)CNC(=O)C(=O)[C@@H]1CCCN1C(=O)CNC(=O)c1ccnc2ccccc12 [Compound 3l, tert-Butyl (S)-(2-oxo-2-(1-((quinoline-4-carbonyl)glycyl)pyrrolidin-2-yl)acetyl)glycinate] | – | – | – | > 4000 nM | 0.6 nM | – | – | – | 104 % vs. control | 121 % vs. control | 104 % vs. control | 111 % vs. control | 97 % vs. control | 109 % vs. control | 95 % vs. control | 100 % vs. control
8 | COC(=O)[C@H](CCC(N)=O)NC(=O)CNC(=O)C(=O)[C@@H]1CCCN1C(=O)CNC(=O)c1ccnc2ccccc12 [Compound 5g, Methyl (2-oxo-2-((S)-1-((quinoline-4-carbonyl)glycyl)pyrrolidin-2-yl)acetyl)glycyl-L-glutaminate] | – | – | – | – | – | – | – | – | 114 % vs. control | 101 % vs. control | 88 % vs. control | 103 % vs. control | 102 % vs. control | 108 % vs. control | 109 % vs. control | 99 % vs. control
